Laboratory results from patent US20110275807A1, “Application of Evodiamine in preparing medicaments for Alzheimer's disease” (Institute of Laboratory Animal Science, Chinese Academy of …, priority 2010, published 2011).

How the values were obtained:
Format in all cases: in vivo
IL-Iβ = test: ELISA of IL-Iβ in brain tissues of Alzheimer's disease model mice; conditions: 100 mg/kg body weight/day in diet for 3 months, compared with the model group
Method: (§1) The evodiamine treatment group was administrated in the standard diet plus evodiamine in a dose of 100 mg/kg body weight/day for 3 months. The model group received a standard diet as the placebo control.

TNF-α = test: ELISA of TNF-α in brain tissues of Alzheimer's disease model mice; conditions: 100 mg/kg body weight/day in diet for 3 months, compared with the model group
Method: as §1

IL-6 = test: ELISA of IL-6 in brain tissues of Alzheimer's disease model mice; conditions: 100 mg/kg body weight/day in diet for 3 months, compared with the model group
Method: as §1

cyclaoxygenase-2 (COX-2) = test: Western Blotting of COX-2 expression in brain tissue of Alzheimer's disease model mice; conditions: 100 mg/kg body weight/day in diet for 3 months, compared with the model group
Method: The evodiamine treatment group was administrated in the standard diet plus evodiamine in a dose of 100 mg/kg body weight/day for 3 months. The model group received a standard diet as the placebo control. […] The inflammation is one of main reasons resulting in the pathological development of Alzheimer's disease, so Evodiamine can treat Alzheimer's disease.

[1] = test system: APPswe/PSΔE9 transgenic model of Alzheimer's disease; test: Morris water-maze test in Alzheimer's disease mice model; conditions: 100 mg/kg body weight/day in diet for 3 months; compared with the model group
Method: The evodiamine treatment group was administrated in the standard diet plus evodiamine in a dose of 100 mg/kg body weight/day for 3 months. The model group received a standard diet as the placebo control. After a three-month continuous administration, the Morris water-maze tests were performed to test the effect of evodiamine on improvement of learning and memory abilities of the Alzheimer's disease mice model.

Substance: Evodiamine
- IL-Iβ in the brain tissues (IL-Iβ): significantly decreased
- TNF-α in the brain tissues (TNF-α): significantly decreased
- IL-6 in the brain tissues (IL-6): significantly decreased
- expression of the cyclaoxygenase-2 (COX-2) in the brain tissue (cyclaoxygenase-2 (COX-2)): reduced
- learning and memory abilities (Morris water-maze) [1]: significantly improved
